Data on 20 molecules can be found in ChEMBL document CHEMBL4715689, “Novel PTP1B inhibitors identified by DNA display of fragment pairs” (Bioorg Med Chem Lett, 2016).

Each structure is given as a SMILES string. The source made the active and inactive calls. No cut-off for these calls is given here. Where only a bound is given, the exact number is not on record here.

Experiment [1] addresses T1, Tyrosine-protein phosphatase non-receptor type 1 (Homo sapiens, UniProt P18031).
T1 sequence (P18031 whole entry): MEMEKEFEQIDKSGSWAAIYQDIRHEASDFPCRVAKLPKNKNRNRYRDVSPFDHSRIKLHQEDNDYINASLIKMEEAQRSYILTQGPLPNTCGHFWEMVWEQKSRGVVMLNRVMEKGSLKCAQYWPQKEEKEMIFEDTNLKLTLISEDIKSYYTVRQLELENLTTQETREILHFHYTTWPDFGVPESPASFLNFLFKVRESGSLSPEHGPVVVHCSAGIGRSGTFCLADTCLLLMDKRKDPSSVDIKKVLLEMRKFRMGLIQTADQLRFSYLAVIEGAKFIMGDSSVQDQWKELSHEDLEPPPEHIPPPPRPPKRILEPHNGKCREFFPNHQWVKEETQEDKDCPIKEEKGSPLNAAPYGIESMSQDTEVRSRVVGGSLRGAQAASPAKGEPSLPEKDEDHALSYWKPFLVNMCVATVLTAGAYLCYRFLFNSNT
Description: Inhibition of N-terminal GST-tagged recombinant human PTP1B (1 to 321 residues) expressed in Escherichia coli using DifMup as substrate preincubated for 30 mins followed by substrate addition and measured immediately

The target in experiment [2] is T1, Tyrosine-protein phosphatase non-receptor type 1. The source holds these as a separate data set.
Description: Binding affinity to N-terminal GST-tagged recombinant human PTP1B (1 to 321 residues) expressed in Escherichia coli assessed as dissociation constant and measured for 120 sec by biolayer interferometry
The target in experiment [3] is T2, Tyrosine-protein phosphatase non-receptor type 2 (Homo sapiens, UniProt P17706).
T2 sequence (P17706 whole entry): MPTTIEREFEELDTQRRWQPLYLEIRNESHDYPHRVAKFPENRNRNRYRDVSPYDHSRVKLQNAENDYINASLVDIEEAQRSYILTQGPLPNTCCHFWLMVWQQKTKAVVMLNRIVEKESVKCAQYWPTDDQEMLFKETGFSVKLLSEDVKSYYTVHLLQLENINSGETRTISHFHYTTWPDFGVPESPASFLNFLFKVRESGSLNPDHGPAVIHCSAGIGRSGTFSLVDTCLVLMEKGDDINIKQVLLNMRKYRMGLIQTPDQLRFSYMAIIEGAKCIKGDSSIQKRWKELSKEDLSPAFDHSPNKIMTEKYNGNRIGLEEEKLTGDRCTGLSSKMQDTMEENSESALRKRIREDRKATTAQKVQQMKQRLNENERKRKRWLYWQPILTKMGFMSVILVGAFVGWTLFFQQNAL
The experiment is described as follows: Inhibition of recombinant human TCPTP (1 to 317 residues) expressed in Escherichia coli using DifMup as substrate preincubated for 30 mins followed by substrate addition and measured immediately.

The next experiment concerns BT-474. The experiment is described as follows: Growth inhibition of human BT474 cells assessed as reduction in cell viability after 48 hrs by MTT assay. The experiment is classed as functional. For orientation: Tetrazolium assays rely on reduction of a dye to a coloured formazan, in cell work by metabolically active cells.

As to `CCCCC(NC1=NS(=O)(=O)c2ccccc21)C(=O)NCC(NC(=O)COCCOCCNC(=O)C(C1CC1)n1cc(-c2cccc(OC)c2)nn1)C(=O)NC(CCCCNC(=O)CCCC[C@@H]1SCC2NC(=O)NC21)C(N)=O` (some centres undefined), the Ki in experiment [1] is 2900 nM; in experiment [3], 7010 nM. The same molecule gave a Kd in experiment [2] of 220 nM.
For `CCCCC(NC1=NS(=O)(=O)c2ccccc21)C(=O)NC[C@@H](NC(=O)C1CCCC(NC(=O)[C@H](CC(C)(C)C)n2cc(CC3CCCCC3)nn2)C1)C(N)=O` (some centres undefined) the same measures were 3100 nM, 12200 nM and 90 nM.
Consider `CCC(C)C(NC1=NS(=O)(=O)c2ccccc21)C(=O)NC[C@@H](NC(=O)CC1(NC(=O)[C@H](CC(C)(C)C)n2cc(CC3CCCCC3)nn2)CCCCC1)C(N)=O` (some centres undefined), for which the GI50 in the experiment on BT-474 was determined as 900 nM. In addition, the values for the Ki in experiment [1] and in experiment [3] were 1700 nM and over 100000 nM, respectively. Further, the Kd in experiment [2] is 290 nM.
For the molecule `CC(C)C(NC1=NS(=O)(=O)c2ccccc21)C(=O)NCC(NC(=O)c1n[nH]c2ccc([N+](=O)[O-])cc12)C(N)=O` (centres undefined), the result in the experiment on BT-474 was inactive. Also, in experiment [3], the Ki was over 20000 nM.
On to `CCC(C)C(NC1=NS(=O)(=O)c2ccccc21)C(=O)NC[C@@H](NC(=O)C1CCCC(NC(=O)C(C2CC2)n2cc(CC3CCCCC3)nn2)C1)C(N)=O` (some centres undefined), for which the Ki in experiment [1] was determined as 3400 nM; in experiment [3] it was 800 nM. For the same molecule, binding in experiment [2] was put at a Kd of 240 nM.
Turning to `CC(C)C(NC1=NS(=O)(=O)c2ccccc21)C(=O)NC[C@@H](NC(=O)CC1(NC(=O)[C@H](CC(C)(C)C)n2cc(CC3CCCCC3)nn2)CCCCC1)C(N)=O` (some centres undefined), the Ki was 3500 nM in experiment [1] and 6200 nM in experiment [3]. This molecule also gave a Kd in experiment [2] of 100 nM.
For `CC(C)C(NC1=NS(=O)(=O)c2ccccc21)C(=O)NC[C@@H](NC(=O)CC1(NC(=O)[C@H](CC(C)(C)C)n2cc(CC3CCCCC3)nn2)CCCCC1)C(=O)NC(CCCCNC(=O)CCCC[C@@H]1SCC2NC(=O)NC21)C(N)=O` (some centres undefined), the Ki in experiment [1] came to 3500 nM; in experiment [3] it was 6200 nM. Binding in experiment [2] was put at a Kd of 100 nM.
Consider `CCCCC(NC1=NS(=O)(=O)c2ccccc21)C(=O)NCC(NC(=O)COCCOCCNC(=O)C(C1CC1)n1cc(-c2cccc(OC)c2)nn1)C(N)=O` (centres undefined), for which the Ki is 2900 nM in experiment [1] and 7010 nM in experiment [3]. The same molecule displayed a Kd in experiment [2] of 220 nM.
The matching figures for `CCCCC(NC1=NS(=O)(=O)c2ccccc21)C(=O)NCC(NC(=O)CC1(NC(=O)C(C2CC2)n2cc(CC3CCCCC3)nn2)CCCCC1)C(=O)NC(CCCCNC(=O)CCCC[C@@H]1SCC2NC(=O)NC21)C(N)=O` (some centres undefined): 16800 nM, 2700 nM and 120 nM.
`CCC(C)C(NC1=NS(=O)(=O)c2ccccc21)C(=O)NC[C@@H](NC(=O)CC1(NC(=O)[C@H](CC(C)(C)C)n2cc(CC3CCCCC3)nn2)CCCCC1)C(=O)NC(CCCCNC(=O)CCCC[C@@H]1SCC2NC(=O)NC21)C(N)=O` (some centres undefined): the GI50 in the experiment on BT-474 was found to be 900 nM. Further, the Ki is 1700 nM in experiment [1] and over 100000 nM in experiment [3]. This molecule showed a Kd in experiment [2] of 290 nM.
For the molecule `CCC(C)C(NC1=NS(=O)(=O)c2ccccc21)C(=O)NC[C@@H](NC(=O)C1CCCC(NC(=O)C(C2CC2)n2cc(CC3CCCCC3)nn2)C1)C(=O)NC(CCCCNC(=O)CCCC[C@@H]1SCC2NC(=O)NC21)C(N)=O` (some centres undefined), the Ki in experiment [1] was determined as 3400 nM; in experiment [3], 800 nM. Binding in experiment [2] was put at a Kd of 240 nM.
As to `CCCCC(NC1=NS(=O)(=O)c2ccccc21)C(=O)NC[C@@H](NC(=O)C1(NC(=O)[C@H](CC(C)(C)C)n2cc(CC3CCCCC3)nn2)CC1)C(N)=O` (some centres undefined), the results for the Ki in experiment [1] and in experiment [3] were 2200 nM and 7600 nM, respectively. Further, in experiment [2], the Kd turned out to be 210 nM.
Consider `NC(=O)C(CCCCNC(=O)CCCC[C@@H]1SCC2NC(=O)NC21)NC(=O)C(CNC(=O)CCCCCNC1=NS(=O)(=O)c2ccccc21)NC(=O)Cc1ccc(CNC(=O)[C@H](C2CC2)n2cc(CC3CCCCC3)nn2)cc1` (some centres undefined), for which the Ki in experiment [1] turned out to be 6800 nM; in experiment [3] it was 3010 nM. In addition, binding in experiment [2] was put at a Kd of 110 nM.
As to `CCCCC(NC1=NS(=O)(=O)c2ccccc21)C(=O)NC[C@@H](NC(=O)C1CCCC(NC(=O)[C@H](CC(C)(C)C)n2cc(CC3CCCCC3)nn2)C1)C(=O)NC(CCCCNC(=O)CCCC[C@@H]1SCC2NC(=O)NC21)C(N)=O` (some centres undefined), the figures for the Ki in experiment [1] and in experiment [3] were 3100 nM and 12200 nM, respectively. The molecule also yielded a Kd in experiment [2] of 90 nM.
The matching figures for `NC(=O)C(CNC(=O)CCCCCNC1=NS(=O)(=O)c2ccccc21)NC(=O)Cc1ccc(CNC(=O)[C@H](C2CC2)n2cc(CC3CCCCC3)nn2)cc1` (some centres undefined): 6800 nM, 3010 nM and 110 nM.
`CCCCC(NC1=NS(=O)(=O)c2ccccc21)C(=O)NCC(NC(=O)c1ccccc1NC(=O)c1n[nH]c2ccc([N+](=O)[O-])cc12)C(N)=O` (centres undefined): the result in the experiment on BT-474 was inactive. The results for the Ki in experiment [1] and in experiment [3] were 1200 nM and over 100000 nM, respectively. In addition, the Kd in experiment [2] was 270 nM.
`CCCCC(NC1=NS(=O)(=O)c2ccccc21)C(=O)NCC(NC(=O)c1ccccc1NC(=O)c1n[nH]c2ccc([N+](=O)[O-])cc12)C(=O)NC(CCCCNC(=O)CCCC[C@@H]1SCC2NC(=O)NC21)C(N)=O` (some centres undefined): the outcome in the experiment on BT-474 was inactive. Besides, the Ki in experiment [1] was 1200 nM; in experiment [3], over 100000 nM. This molecule yielded a Kd in experiment [2] of 270 nM.
Regarding `CC(C)C(NC1=NS(=O)(=O)c2ccccc21)C(=O)NCC(NC(=O)c1n[nH]c2ccc([N+](=O)[O-])cc12)C(=O)NC(CCCCNC(=O)CCCC[C@@H]1SCC2NC(=O)NC21)C(N)=O` (some centres undefined), in the experiment on BT-474, the outcome was inactive. Further, the figures for the Ki in experiment [1] and in experiment [3] were 250 nM and over 20000 nM, respectively. Also, the Kd in experiment [2] was 50 nM.
As for `CCCCC(NC1=NS(=O)(=O)c2ccccc21)C(=O)NC[C@@H](NC(=O)C1(NC(=O)[C@H](CC(C)(C)C)n2cc(CC3CCCCC3)nn2)CC1)C(=O)NC(CCCCNC(=O)CCCC[C@@H]1SCC2NC(=O)NC21)C(N)=O` (some centres undefined), the Ki in experiment [1] stood at 2200 nM; in experiment [3], 7600 nM. Besides, the Kd in experiment [2] was 210 nM.
For `CCCCC(NC1=NS(=O)(=O)c2ccccc21)C(=O)NCC(NC(=O)CC1(NC(=O)C(C2CC2)n2cc(CC3CCCCC3)nn2)CCCCC1)C(N)=O` (centres undefined), the Ki in experiment [1] was determined as 16800 nM; in experiment [3] it was 2700 nM. Further, in experiment [2], the Kd came out at 120 nM.

In general, Ki refers to the dissociation constant of the complex between target and ligand, obtained from inhibition or displacement. The term Kd denotes a measure of binding affinity in units of concentration. The GI50 is the concentration giving 50% growth inhibition.
